Experimental data from patent US6723837B1, “Nucleic acid molecule and encoded protein associated with sterol synthesis and metabolism” (Monsanto Technology LLC, priority 1999, dated 2004).

System: wild type yeast LPY9
Assay: RNA abundance on yeast ORF array after ketoconazole treatment vs control without ketoconazole
Type: cell-based
Conditions: LPY9, 2 hr, vs untreated LPY9
Experimental: The yeast strain LPY9 (MATa, leu2, Ura3, his3) is grown overnight and inoculated into SD+ hul (histidine, uracil, leucine) media. Aliquots of the culture are treated with ketoconazole (an inhibitor of C-14α demethylase (P45014DM) enzyme) at 10 ug/ml, 50 ug/ml, and 100 ug/ml, corresponding to 10 ppm, 50 ppm, and 100 ppm, respectively. A sample of each is collected at 2, 4, and 6 hours after treatment. Control samples treated with DMSO (dimethyl sulfoxide-solvent for ketoconazole) but not with ketoconazole are also collected. Total RNA from each sample is collected by conventional methods, such as a Zirconium/Silica bead binding and extraction method. The sequence content of each sample is analyzed and compared by hybridizing each of them to a number of yeast ORF sequences immobilized on a Nylon membrane in an array format.
Table 2, below, lists the RNAs in each sample whose abundance is effected by ketoconazole treatment or whose abundance differs between wild type and the double mutant strain. The table also lists the corresponding gene or sequence identifier for those RNAs. The RNAs are ranked by the ratio of either ketocanozole vs. control or mutant vs. control, using the ratio of 50 ppm ketocanozole/control as a basis for comparison.

Structure (SMILES): CC(=O)N1CCN(c2ccc(OCC3COC(Cn4ccnc4)(c4ccc(Cl)cc4Cl)O3)cc2)CC1 (centres unmarked) [ketoconazole]
- K-50/CK expression level ratio: YAL001C (TFC3) (50 micro gram/ml): 0.4743
- K-50/CK expression level ratio: YAL013W (DEP1) (50 micro gram/ml): 5.546
- K-50/CK expression level ratio: YAL048C (50 micro gram/ml): 2.138
- K-50/CK expression level ratio: YAR044W (OSH1) (50 micro gram/ml): 3.625
- K-50/CK expression level ratio: YBL005W (PDR3) (50 micro gram/ml): 4.145
- K-50/CK expression level ratio: YBL008W (HIR1) (50 micro gram/ml): 2.828
- K-50/CK expression level ratio: YBR119W (MUD1) (50 micro gram/ml): 2.405
- K-50/CK expression level ratio: YBR289W (SNF5) (50 micro gram/ml): 2.688
- K-50/CK expression level ratio: YCL037C (SRO9) (50 micro gram/ml): 2.786
- K-50/CK expression level ratio: YCR048W (ARE1) (50 micro gram/ml): 6.104
- K-50/CK expression level ratio: YCR084C (TUP1) (50 micro gram/ml): 2.922
- K-50/CK expression level ratio: YDL088C (ASM4) (50 micro gram/ml): 4.176
- K-50/CK expression level ratio: YDR052C (DBF4) (50 micro gram/ml): 2.404
- K-50/CK expression level ratio: YDR088C (SLU7) (50 micro gram/ml): 2.734
- K-50/CK expression level ratio: YDR211W (GCD6) (50 micro gram/ml): 2.484
- K-50/CK expression level ratio: YDR213W (50 micro gram/ml): 32.14
- K-50/CK expression level ratio: YDR253C (MET32) (50 micro gram/ml): 0.3397
- K-50/CK expression level ratio: YDR264C (AKR1) (50 micro gram/ml): 2.198
- K-50/CK expression level ratio: YDR389W (SAC7) (50 micro gram/ml): 4.561
- K-50/CK expression level ratio: YDR422C (SIP1) (50 micro gram/ml): 2.187
- K-50/CK expression level ratio: YFL054C (50 micro gram/ml): 0.4794
- K-50/CK expression level ratio: YFR009W (GCN20) (50 micro gram/ml): 2.486
- K-50/CK expression level ratio: YFR034C (PHO4) (50 micro gram/ml): 11.22
- K-50/CK expression level ratio: YGL001C (50 micro gram/ml): 2.821
- K-50/CK expression level ratio: YGL014W (50 micro gram/ml): 3.229
- K-50/CK expression level ratio: YGL071W (RCS1) (50 micro gram/ml): 3.696
- K-50/CK expression level ratio: YGL112C (TAF60) (50 micro gram/ml): 2.077
- K-50/CK expression level ratio: YGL192W (IME4) (50 micro gram/ml): 3.17
- K-50/CK expression level ratio: YGR177C (ATF2) (50 micro gram/ml): 11.83
- K-50/CK expression level ratio: YGR270W (YTA7) (50 micro gram/ml): 2.406
- K-50/CK expression level ratio: YHL027W (RIM101) (50 micro gram/ml): 2.103
- K-50/CK expression level ratio: YIL084C (SDS3) (50 micro gram/ml): 5.543
- K-50/CK expression level ratio: YIR017C (MET28) (50 micro gram/ml): 0.3775
- K-50/CK expression level ratio: YJL127C (SPT10) (50 micro gram/ml): 7.839
- K-50/CK expression level ratio: YJR017C (ESS1) (50 micro gram/ml): 3.559
- K-50/CK expression level ratio: YJR019C (TES1) (50 micro gram/ml): 2.83
- K-50/CK expression level ratio: YKR034W (DAL80) (50 micro gram/ml): 5.044
- K-50/CK expression level ratio: YLR098C (CHA4) (50 micro gram/ml): 4.756
- K-50/CK expression level ratio: YLR120C (YAP3) (50 micro gram/ml): 3.623
- K-50/CK expression level ratio: YLR153C (ACS2) (50 micro gram/ml): 3.379
- K-50/CK expression level ratio: YLR249W (YEF3) (50 micro gram/ml): 3.145
- K-50/CK expression level ratio: YMR019W (STB4) (50 micro gram/ml): 3.441
- K-50/CK expression level ratio: YMR037C (MSN2) (50 micro gram/ml): 6.424
- K-50/CK expression level ratio: YMR047C (NUP116) (50 micro gram/ml): 3.17
- K-50/CK expression level ratio: YMR080C (NAM7) (50 micro gram/ml): 2.183
- K-50/CK expression level ratio: YMR146C (TIF34) (50 micro gram/ml): 0.2248
- K-50/CK expression level ratio: YNR019W (ARE2) (50 micro gram/ml): 1.791
- K-50/CK expression level ratio: YOL067C (RTG1) (50 micro gram/ml): 10.03
- K-50/CK expression level ratio: YOR127W (RGA1) (50 micro gram/ml): 2.532
- K-50/CK expression level ratio: YOR237W (HES1) (50 micro gram/ml): 1418
- K-50/CK expression level ratio: YOR337W (TEA1) (50 micro gram/ml): 2.979
- K-50/CK expression level ratio: YPL028W (ERG10) (50 micro gram/ml): 2.019
- K-50/CK expression level ratio: YPL119C (DBP1) (50 micro gram/ml): 3.246
- K-50/CK expression level ratio: YPL226W (50 micro gram/ml): 2.889
- K-50/CK expression level ratio: YPL237W (SUI3) (50 micro gram/ml): 2.563
- K-50/CK expression level ratio: YPR080W (TEF1) (50 micro gram/ml): 2.212
- K-100/CK expression level ratio: YAL001C (TFC3) (100 micro gram/ml): 1.192
- K-100/CK expression level ratio: YAL013W (DEP1) (100 micro gram/ml): 6.425
- K-100/CK expression level ratio: YAL048C (100 micro gram/ml): 4.221
- K-100/CK expression level ratio: YAR044W (OSH1) (100 micro gram/ml): 3.884
- K-100/CK expression level ratio: YBL005W (PDR3) (100 micro gram/ml): 6.083
- K-100/CK expression level ratio: YBL008W (HIR1) (100 micro gram/ml): 2.887
- K-100/CK expression level ratio: YBR119W (MUD1) (100 micro gram/ml): 1.399
- K-100/CK expression level ratio: YBR289W (SNF5) (100 micro gram/ml): 3.039
- K-100/CK expression level ratio: YCL037C (SRO9) (100 micro gram/ml): 2.394
- K-100/CK expression level ratio: YCR048W (ARE1) (100 micro gram/ml): 10.53
- K-100/CK expression level ratio: YCR084C (TUP1) (100 micro gram/ml): 3.272
- K-100/CK expression level ratio: YDL088C (ASM4) (100 micro gram/ml): 3.321
- K-100/CK expression level ratio: YDR052C (DBF4) (100 micro gram/ml): 1.583
- K-100/CK expression level ratio: YDR088C (SLU7) (100 micro gram/ml): 2.688
- K-100/CK expression level ratio: YDR211W (GCD6) (100 micro gram/ml): 1.824
- K-100/CK expression level ratio: YDR213W (100 micro gram/ml): 58.36
- K-100/CK expression level ratio: YDR253C (MET32) (100 micro gram/ml): 0.3279
- K-100/CK expression level ratio: YDR264C (AKR1) (100 micro gram/ml): 2.752
- K-100/CK expression level ratio: YDR389W (SAC7) (100 micro gram/ml): 4.314
- K-100/CK expression level ratio: YDR422C (SIP1) (100 micro gram/ml): 2.084
- K-100/CK expression level ratio: YFL054C (100 micro gram/ml): 0.6137
- K-100/CK expression level ratio: YFR009W (GCN20) (100 micro gram/ml): 2.161
- K-100/CK expression level ratio: YFR034C (PHO4) (100 micro gram/ml): 20.84
- K-100/CK expression level ratio: YGL001C (100 micro gram/ml): 1.985
- K-100/CK expression level ratio: YGL014W (100 micro gram/ml): 3.638
- K-100/CK expression level ratio: YGL071W (RCS1) (100 micro gram/ml): 4.531
- K-100/CK expression level ratio: YGL112C (TAF60) (100 micro gram/ml): 2.189
- K-100/CK expression level ratio: YGL192W (IME4) (100 micro gram/ml): 6.478
- K-100/CK expression level ratio: YGR177C (ATF2) (100 micro gram/ml): 12.56
- K-100/CK expression level ratio: YGR270W (YTA7) (100 micro gram/ml): 1.946
- K-100/CK expression level ratio: YHL027W (RIM101) (100 micro gram/ml): 2.593
- K-100/CK expression level ratio: YIL084C (SDS3) (100 micro gram/ml): 6.907
- K-100/CK expression level ratio: YIR017C (MET28) (100 micro gram/ml): 0.3009
- K-100/CK expression level ratio: YJL127C (SPT10) (100 micro gram/ml): 10.1
- K-100/CK expression level ratio: YJR017C (ESS1) (100 micro gram/ml): 3.221
- K-100/CK expression level ratio: YJR019C (TES1) (100 micro gram/ml): 2.072
- K-100/CK expression level ratio: YKR034W (DAL80) (100 micro gram/ml): 7.284
- K-100/CK expression level ratio: YLR098C (CHA4) (100 micro gram/ml): 5.587
- K-100/CK expression level ratio: YLR120C (YAP3) (100 micro gram/ml): 4.43
- K-100/CK expression level ratio: YLR153C (ACS2) (100 micro gram/ml): 3.129
- K-100/CK expression level ratio: YLR249W (YEF3) (100 micro gram/ml): 2.632
- K-100/CK expression level ratio: YMR019W (STB4) (100 micro gram/ml): 3.398
- K-100/CK expression level ratio: YMR037C (MSN2) (100 micro gram/ml): 7.661
- K-100/CK expression level ratio: YMR047C (NUP116) (100 micro gram/ml): 4.774
- K-100/CK expression level ratio: YMR080C (NAM7) (100 micro gram/ml): 2.171
- K-100/CK expression level ratio: YMR146C (TIF34) (100 micro gram/ml): 0.7194
- K-100/CK expression level ratio: YNR019W (ARE2) (100 micro gram/ml): 2.854
- K-100/CK expression level ratio: YOL067C (RTG1) (100 micro gram/ml): 27.37
- K-100/CK expression level ratio: YOR127W (RGA1) (100 micro gram/ml): 2.57
- K-100/CK expression level ratio: YOR139C (SFL1) (100 micro gram/ml): 11.76
- K-100/CK expression level ratio: YOR237W (HES1) (100 micro gram/ml): 1358
- K-100/CK expression level ratio: YOR337W (TEA1) (100 micro gram/ml): 4.823
- K-100/CK expression level ratio: YPL028W (ERG10) (100 micro gram/ml): 1.699
- K-100/CK expression level ratio: YPL119C (DBP1) (100 micro gram/ml): 2.197
- K-100/CK expression level ratio: YPL226W (100 micro gram/ml): 2.556
- K-100/CK expression level ratio: YPL237W (SUI3) (100 micro gram/ml): 2.548
- K-100/CK expression level ratio: YPR080W (TEF1) (100 micro gram/ml): 1.859
